Data: patent US7396837B2, “Antitumoral analogs of lamellarins” (Pharma Mar, S.A.U., priority 2002, dated 2008)
Read-outs that look alike come from different tables or passages of the source.

What was measured:
Assay type in all cases: cell-based
[1] = SRB colorimetric cell growth inhibition assay, H-MEC-1; settings: human; H-MEC-1; cell killing (cytotoxic effect); read-out: LC50 H-MEC-1
Excerpt: A colorimetric type of assay, using sulforhodamine B (SRB) reaction has been adapted for a quantitative measurement of cell growth and viability (following the technique described by P. A. Skehan, et al., J. Natl. Cancer Inst. 1990, 82, 1107-1112).
This form of assay employs 96 well cell culture microplates of 9 mm diameter (T. Mosmann et al., J. of Immunological Methods 1983, 65, 55-63; G. T. Faircloth et al., J. of Tissue and Culture Methods 1988, 11, 201-205).
Most of the cell lines are obtained from American Type Culture Collection (ATCC) derived from different human cancer types.
The values for mean +/− SD of data from triplicate wells are calculated. Some parameters for cellular responses can be calculated: GI=growth inhibition, TGI=total growth inhibition (cytostatic effect) and LC=cell killing (cytotoxic effect).

LoVo = test: SRB colorimetric cell growth inhibition assay, LoVo; settings: Homo sapiens, LoVo; for GI50: GI=growth inhibition, read-out: GI50 LOVO; for CC50: cell killing (cytotoxic effect); for IC (TGI): total growth inhibition (cytostatic effect), read-out: TGI LOVO
Outline: (§1)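 Continuous drug exposure of human cancer cells; SRB protein stain read-out; triplicate wells, mean ± SD; GI, TGI, LC computed.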

HT-29 = test: SRB colorimetric cell growth inhibition assay, HT-29; settings: Homo sapiens; for GI50: GI=growth inhibition, read-out: GI50 HT-29; for CC50: cell killing (cytotoxic effect); for IC (TGI): total growth inhibition (cytostatic effect), read-out: TGI HT-29
Outline: as §1

SK-BR-3 = test: SRB colorimetric cell growth inhibition assay, SK-BR-3; settings: Homo sapiens; for GI50: GI=growth inhibition, read-out: GI50 SK-BR-3; for CC50: LC=cell killing (cytotoxic effect); for IC (TGI): TGI=total growth inhibition (cytostatic effect), read-out: TGI SK-BR-3
Outline: as §1

SKOV-3 = test: SRB colorimetric cell growth inhibition assay, SKOV-3; settings: Homo sapiens; for GI50: SK-OV-3, SKOV-3, GI=growth inhibition, read-out: GI50 SKOV-3; for IC (TGI): TGI=total growth inhibition (cytostatic effect), read-out: TGI SKOV-3
Outline: (§2)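 Growth and viability quantified by sulforhodamine B staining in 96-well microplates. Triplicate wells give mean ± SD; derived endpoints are GI, TGI (cytostatic) and LC (cytotoxic).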

SK-MEL-28 = test: SRB colorimetric cell growth inhibition assay, SK-MEL-28; settings: Homo sapiens; for GI50: GI=growth inhibition, read-out: GI50 MEL-28; for CC50: LC=cell killing (cytotoxic effect); for IC (TGI): TGI=total growth inhibition (cytostatic effect), read-out: TGI MEL-28
Outline: as §1

H-MEC-1 = test: SRB colorimetric cell growth inhibition assay, H-MEC-1; settings: Homo sapiens, HMEC-1, H-MEC-1; for GI50: GI=growth inhibition; for IC (TGI): TGI=total growth inhibition (cytostatic effect), read-out: TGI H-MEC-1
Outline: as §2

[2] = as above; settings: human
Outline: as §2

K-562 = test: SRB colorimetric cell growth inhibition assay, K-562; settings: Homo sapiens; for GI50: GI=growth inhibition, read-out: GI50 K-562; for CC50: cell killing (cytotoxic effect); for IC (TGI): total growth inhibition (cytostatic effect), read-out: TGI K-562
Outline: as §1

IGROV = test: SRB colorimetric cell growth inhibition assay, IGROV; settings: Homo sapiens, IGROV; for GI50: GI=growth inhibition, read-out: GI50 IGROV; for CC50: LC=cell killing (cytotoxic effect); for IC (TGI): TGI=total growth inhibition (cytostatic effect), read-out: TGI IGROV
Outline: as §1

LNCaP = test: SRB colorimetric cell growth inhibition assay, LNCaP; settings: Homo sapiens, LNCaP; for GI50: GI=growth inhibition, read-out: GI50 LN-caP; for CC50: LC=cell killing (cytotoxic effect); for IC (TGI): TGI=total growth inhibition (cytostatic effect), read-out: TGI LN-caP
Outline: as §1

LoVo-Dox = test: SRB colorimetric cell growth inhibition assay, LoVo-Dox (MDR); settings: Homo sapiens; for GI50: GI=growth inhibition, read-out: GI50 LOVO-DOX; for CC50: cell killing (cytotoxic effect); for IC (TGI): total growth inhibition (cytostatic effect), read-out: TGI LOVO-DOX
Outline: as §1

DU-145 = test: SRB colorimetric cell growth inhibition assay, DU-145; settings: Homo sapiens; for GI50: GI=growth inhibition, read-out: GI50 DU-145; for CC50: LC=cell killing (cytotoxic effect); for IC (TGI): TGI=total growth inhibition (cytostatic effect), read-out: TGI DU-145
Outline: as §1

PANC-1 = test: SRB colorimetric cell growth inhibition assay, PANC-1; settings: Homo sapiens; for GI50: GI=growth inhibition, read-out: GI50 PANC-1; for CC50: cell killing (cytotoxic effect); for IC (TGI): total growth inhibition (cytostatic effect), read-out: TGI PANC-1
Outline: as §1

A-549 = test: SRB colorimetric cell growth inhibition assay, A-549; settings: Homo sapiens; for GI50: GI=growth inhibition, read-out: GI50 A-549; for CC50: cell killing (cytotoxic effect); for IC (TGI): total growth inhibition (cytostatic effect), read-out: TGI A-549
Outline: as §1

IGROV-ET = test: SRB colorimetric cell growth inhibition assay, IGROV-ET (ET-743 resistant); settings: Homo sapiens; for GI50: GI=growth inhibition, read-out: GI50 IGROV-ET; for CC50: LC=cell killing (cytotoxic effect); for IC (TGI): TGI=total growth inhibition (cytostatic effect), read-out: TGI IGROV-ET
Outline: as §1

In the case of `COc1cc(-c2c3n(c4c(=O)oc5cc(OC(=O)[C@@H](N)C[S][Fm])c(OC)cc5c24)CCc2c-3cc(OC)c(OC)c2OC(=O)[C@@H](N)C[S][Fm])ccc1OC(=O)[C@@H](N)C[S][Fm]` [Compound 23], the LC50 (concentration giving 50% net cell killing) [1] is reported as 2.87 µM.
For `COc1cc2ccn3c(c(-c4ccc(OS(=O)(=O)C(F)(F)F)c(OC)c4)c4c5cc(OC)c(OS(=O)(=O)C(F)(F)F)cc5oc(=O)c43)c2cc1OC` [Compound 126], the GI50 (LoVo) was 2.56 µM, the CC50 (LoVo; read-out: LC50 LOVO) was 12.6 µM and the IC (TGI) (LoVo) was 5.68 µM. The GI50 (HT-29; HT-29, HT-29) was 3 µM, the CC50 (HT-29; HT-29, HT-29, read-out: LC50 HT-29) was 12.9 µM and the IC (TGI) (HT-29; HT-29, HT-29) was 9.22 µM. For the same compound, the GI50 (SK-BR-3; SK-BR-3, SK-BR-3) was 2.11 µM, the CC50 (SK-BR-3; SK-BR-3, SK-BR-3, read-out: LC50 SK-BR-3) was 1.29 µM and the IC (TGI) (SK-BR-3; SK-BR-3, SK-BR-3) was 5.36 µM. It also gave a GI50 (SKOV-3) of 3.48 µM, a CC50 (SKOV-3; SK-OV-3, SKOV-3, LC=cell killing (cytotoxic effect), read-out: LC50 SKOV-3) of 12.9 µM and an IC (TGI) (SKOV-3; SK-OV-3, SKOV-3) of 6.98 µM. For the same compound, the GI50 (SK-MEL-28; SK-MEL-28, MEL-28) was 2.93 µM, the CC50 (SK-MEL-28; SK-MEL-28, MEL-28, read-out: LC50 MEL-28) was 9.48 µM and the IC (TGI) (SK-MEL-28; SK-MEL-28, MEL-28) was 5.27 µM. The GI50 (H-MEC-1) was 0.746 µM, the IC (TGI) (H-MEC-1) was 2.25 µM and the CC50 ([2]; H-MEC-1 cells, H-MEC-1, LC=cell killing (cytotoxic effect), read-out: LC50 H-MEC-1) was 6.46 µM. The GI50 (K-562; K562, K-562) was 2.15 µM, the CC50 (K-562; K562, K-562, read-out: LC50 K-562) was 8.69 µM and the IC (TGI) (K-562; K562, K-562) was 4.32 µM. The GI50 (IGROV) was 2.26 µM, the CC50 (IGROV; read-out: LC50 IGROV) was 12.6 µM and the IC (TGI) (IGROV) was 5.32 µM. It also gave a GI50 (LNCaP; LN-caP) of 1.25 µM, a CC50 (LNCaP; LN-caP, read-out: LC50 LN-caP) of 6.04 µM and an IC (TGI) (LNCaP; LN-caP) of 2.76 µM. The GI50 (LoVo-Dox; LOVO-DOX) was 12.9 µM, the CC50 (LoVo-Dox; LOVO-DOX, read-out: LC50 LOVO-DOX) was 12.9 µM and the IC (TGI) (LoVo-Dox; LOVO-DOX) was 12.9 µM. For the same compound, the GI50 (DU-145; DU-145, DU-145) was 2.53 µM, the CC50 (DU-145; DU-145, DU-145, read-out: LC50 DU-145) was 12.9 µM and the IC (TGI) (DU-145; DU-145, DU-145) was 6.49 µM. It also gave a GI50 (PANC-1; PANC-1, PANC-1) of 2.19 µM, a CC50 (PANC-1; PANC-1, PANC-1, read-out: LC50 PANC-1) of 12.9 µM and an IC (TGI) (PANC-1; PANC-1, PANC-1) of 6.57 µM. The GI50 (A-549; A549, A-549) was 2.98 µM, the CC50 (A-549; A549, A-549, read-out: LC50 A-549) was 2.25 µM and the IC (TGI) (A-549; A549, A-549) was 5.74 µM. The GI50 (IGROV-ET; IGROV-ET) was 3.88 µM, the CC50 (IGROV-ET; IGROV-ET, read-out: LC50 IGROV-ET) was 12.9 µM and the IC (TGI) (IGROV-ET; IGROV-ET) was 7.87 µM.
`COc1cc(-c2c3n(c4c(=O)oc5cc(OC(=O)[C@@H]6CCCN6)c(OC)cc5c24)CCc2cc(OC(=O)[C@@H]4CCCN4)c(OC)cc2-3)ccc1OC(=O)[C@@H]1CCCN1` [Compound 134] showed a CC50 (LoVo; read-out: LC50 LOVO, LOVO) of 8.67 µM, a GI50 (LoVo) of 2.05 µM and an IC (TGI) (LoVo) of 4.21 µM. For the same compound, the GI50 (HT-29; HT-29, HT-29) was 2.85 µM, the CC50 (HT-29; HT-29, read-out: LC50 HT-29, HT-29) was 8.81 µM and the IC (TGI) (HT-29; HT-29) was 8.81 µM. The GI50 (SK-BR-3; SK-BR-3, SK-BR-3) was 2.1 µM, the IC (TGI) (SK-BR-3; SK-BR-3, SK-BR-3) was 4.34 µM and the CC50 (SK-BR-3; SK-BR-3, read-out: LC50 SK-BR-3, SK-BR-3) was 8.81 µM. For the same compound, the GI50 (SKOV-3) was 0.739 µM, the CC50 (SKOV-3; SK-OV-3, read-out: LC50 SKOV-3) was 4.26 µM and the IC (TGI) (SKOV-3; SK-OV-3, SKOV-3) was 1.85 µM. The GI50 (SK-MEL-28; SK-MEL-28, MEL-28) was 1.73 µM, the IC (TGI) (SK-MEL-28; SK-MEL-28, MEL-28) was 3.23 µM and the CC50 (SK-MEL-28; SK-MEL-28, read-out: LC50 MEL-28, MEL-28) was 6.04 µM. It also gave a GI50 (H-MEC-1) of 2.13 µM, an IC (TGI) (H-MEC-1) of 6.51 µM and a CC50 ([2]; LC50 H-MEC-1) of 8.81 µM. For the same compound, the GI50 (K-562; K562, K-562) was 0.571 µM, the IC (TGI) (K-562; K562, K-562) was 4.93 µM and the CC50 (K-562; K562, read-out: LC50 K-562, K-562) was 8.81 µM. The CC50 (IGROV; read-out: LC50 IGROV, IGROV) was 6.5 µM, the GI50 (IGROV) was 0.943 µM and the IC (TGI) (IGROV) was 2.48 µM. It also gave a GI50 (LNCaP; LN-caP) of 0.458 µM, an IC (TGI) (LNCaP; LN-caP) of 1.34 µM and a CC50 (LNCaP; read-out: LC50 LN-caP, LN-caP) of 4.16 µM. For the same compound, the GI50 (LoVo-Dox; LOVO-DOX) was 0.519 µM, the IC (TGI) (LoVo-Dox; LOVO-DOX) was 1.99 µM and the CC50 (LoVo-Dox; read-out: LC50 LOVO-DOX, LOVO-DOX) was 7.79 µM. It also gave a GI50 (DU-145; DU-145, DU-145) of 2.12 µM, an IC (TGI) (DU-145; DU-145, DU-145) of 4.47 µM and a CC50 (DU-145; DU-145, read-out: LC50 DU-145, DU-145) of 8.81 µM. It also gave a GI50 (PANC-1; PANC-1, PANC-1) of 2.17 µM, an IC (TGI) (PANC-1; PANC-1, PANC-1) of 4.53 µM and a CC50 (PANC-1; PANC-1, read-out: LC50 PANC-1, PANC-1) of 8.81 µM. The GI50 (A-549; A549, A-549) was 2.55 µM, the IC (TGI) (A-549; A549, A-549) was 4.93 µM and the CC50 (A-549; A549, read-out: LC50 A-549, A-549) was 8.81 µM. For the same compound, the GI50 (IGROV-ET; IGROV-ET) was 0.482 µM, the IC (TGI) (IGROV-ET; IGROV-ET) was 2.14 µM and the CC50 (IGROV-ET; read-out: LC50 IGROV-ET, IGROV-ET) was 7.58 µM.
